melting point [°C] | Compound
184 to 186 | CC(=O)NCC12CC(c3ccccc31)c1ccccc12
118 to 119 | CC(C)(C)OC(=O)NC(Cc1ccccc1)C(=O)Oc1ccc2ccccc2c1 (stereo not drawn)
108 to 109 | CC(C)n1c(=O)n(C)c2cc(-c3ncc(C(F)(F)F)cc3Cl)ccc21
92 to 94 | O=C(O)C1CCc2ccc([N+](=O)[O-])cc21 (stereo not drawn)
148 | Fc1cccc(Nc2nc(Cl)nc(NC3CCCCCC3)n2)c1
128 to 131 | CNC(Cc1ccccc1N)C(=O)c1ccc(OC)c(OC)c1 (stereo not drawn)
71 to 72 | CC(=O)OCC=C(C)C=CC=C(C)C=O
188 to 190 | COc1ccccc1[C@@]1(O)[C@H](O)CC(c2ccccc2)(c2ccccc2)[C@@H]2CN(C(=O)Cc3cccc4ccccc34)C[C@@H]21 (racemic)
83 to 85 | COc1ccc(C2Cc3ccccc3C2=O)cc1 (stereo not drawn)
125 | CC(=O)n1cc(Cl)c(-c2cc(Cl)cc(Cl)c2)n1
72 to 73 | COC(=O)c1cc(Cl)c(I)cc1OC
233 to 235 | O=C(CCCN1CCN(c2ccc(F)cc2)CC1)NC1c2ccccc2C=Cc2ccccc21
199 to 202 | Cc1nnc2ccc(-c3cccnc3)cn12
102 to 104 | COC(=O)c1cccc2c1ccn2S(C)(=O)=O
190 to 191 | CCC(Oc1ccc(C(C)(C)CC)cc1C(C)(C)CC)C(=O)Nc1cc(O)c(NC(=O)c2ccccc2)cc1Cl (stereo not drawn)
228 | OC1CSC(Oc2cncc(-c3c(F)cc(F)cc3F)c2)C(O)C1O (stereo not drawn)
88 to 90 | COc1ccc(-c2nc(Cl)cc(N3CCN(C)CC3)n2)cc1
290 to 300 | O=C(O)c1ccc(OC(=O)c2cccc(C(=O)Oc3ccc(C(=O)O)cc3)c2)cc1
300 | Cc1nc(NC(=O)c2cnn3c(C(F)(F)F)cc(-c4ccc(C(F)(F)F)cc4)nc23)sc1S(=O)(=O)N1CCC(O)C1 (racemic)
199 to 201 | N#Cc1ccc(COc2cc(O)cc(C(=O)Nc3ccc(C#N)cc3)c2)cc1
100 | Cc1cc(C(C)C(=O)O)ccc1C(=O)c1cccs1 (stereo not drawn)
124 | Fc1cccc(F)c1-c1nc2ccccc2n1Cc1ccccc1
160 to 175 | CC1Oc2ccccc2C(O)C1n1ccnc1 (stereo not drawn)
205 to 208 | COc1cc(Nc2c(C#N)cnc3cc4cc(OCCCN5CCOCC5)c(OC)cc4cc23)c(Cl)cc1Cl

melting point [°C] | Compound
211 to 212 | CCOC(=O)c1ccc2nc(N)oc2c1
123 to 125 | COCCNC(=O)c1ccc(C(=O)N2CCN(c3ncccc3NCC(C)C)CC2)nc1
96 to 101 | O=C(c1ccccc1)C1C=C(Cl)C=CC1(F)NCCO (stereo not drawn)
259 to 260 | O=c1cc(CCN2CCC(c3c[nH]c4ccccc34)CC2)c2ccccc2[nH]1
101 | O=S(=O)(NCCc1ccc(C(O)CCCO)cc1)c1ccccc1Cl (stereo not drawn)
203 to 206 | O=C(Nc1c[nH]nc1C(=O)NCC(F)(F)F)c1ccccc1
141 to 143 | O=[N+]([O-])c1ccc(Sc2ncc(Cl)cn2)s1
161 to 163 | O=C(c1ccccc1)c1ccc(NC(=O)N2CCC3(CC2)OC(=O)c2ccccc23)cc1
94 to 95 | CCCCC(CC)n1c(CC)nc2c1C(=O)N(C)CN2c1ccc(Cl)cc1Cl (stereo not drawn)
54 to 56 | CCCCCCCCCCCCCCCCCNC(=O)O[C@@H]1CCO[C@H]1COCc1ccccc1 (relative stereo)
142 | Cc1c(C)c2c(c(C)c1O)CCC(C)(CC(=O)N(C)C)O2 (stereo not drawn)
76 to 77 | COc1c([N+](=O)[O-])cc(C(C)=O)c2c1CCCC2
255 to 258 | CC(=O)Nc1ccc(Sc2c(NCc3ccccc3)cc(C(=O)O)cc2S(N)(=O)=O)cc1
246 to 248 | Nc1cc(=O)n(C2CCCC2)c2nc(N[C@H]3CC[C@H](O)CC3)ncc12
165 to 167 | COc1cc(Nc2c(C#N)cnc3cc(C#CCCN4CCN(C)CC4)c(OC)cc23)c(Cl)cc1Cl
160 to 162 | CNc1ncc(-c2ccc(C)cc2)c(-c2ccc(C)cc2)n1
131 to 133 | Cc1nc(Nc2c([N+](=O)[O-])cc([N+](=O)[O-])cc2C(F)(F)F)c(Cl)c(C)c1Cl
132 | OCc1nn(-c2ccccc2Cl)cc1-c1ccccc1
105 to 106 | N#C[C@@H]1C[C@@H]2C[C@@H]2N1C(=O)[C@@H](NC(=O)OCc1ccccc1)C12CC3CC(CC(O)(C3)C1)C2
129 to 131 | COc1ccc(CCNC(=O)C(=O)NCc2ccncc2)cc1OC1CCCC1
55 to 58 | N#Cc1cc(Cl)ncc1Cl
138 to 140 | CN(Cc1ccccc1)c1cc(=S)ss1
215 to 218 | COc1ccccc1NC(=O)Nc1nc(Oc2ccc3ccccc3c2)nc(N(CCC(=O)O)Cc2cccc(Cl)c2)n1
162 to 163 | CS(=O)(=O)c1ccc(Oc2ccc(Cl)c(Cl)c2)c(C#N)c1

melting point [°C] | Compound
133 | CCOC(=O)c1cn(C(C)(C)CO[Si](C)(C)C(C)(C)C)c2cc(Br)ccc2c1=O
111 to 112 | CN1c2c(Cl)cc(CC(=O)O)cc2CCC1c1ccccc1 (stereo not drawn)
38 | CCC(=O)c1ccnc(OC)c1
140 to 141 | COC(=O)c1cncn1C1c2ccccc2C(OC)(OC)C1(C)C (stereo not drawn)
187 to 188 | CC(C)(C)c1cc(C(=O)NN)cc(C(C)(C)C)c1O
223 to 225 | N#CCC(=O)Nc1ccc(-c2nncn2-c2ccc(F)cc2)cc1
205 to 235 | COc1cc(Nc2c(C#N)cnc3cc4cc(OC)c(OCCN5CCC(O)CC5)cc4cc23)c(Cl)cc1C
158 to 164 | OC1(c2ccc(Cl)cc2)CCCNC12CCCCC2 (stereo not drawn)
60 to 63 | CCCC[C@H](NC(=O)[C@H](CCCCNC(=O)OC(C)(C)C)NC(=O)OCc1ccccc1)C(=O)CSCc1ccco1
144 | Cc1nc(C(F)F)c(C(=O)Nc2ccccc2-c2ccc(Cl)cc2)s1
197 to 198 | C=CCc1c2nc(C(=O)OC)cc(Cl)c2cc2c(=O)cc(C(=O)OCC)oc12
229 to 231 | CCOC(=O)c1c(C#N)c2c(c3[nH]c4ccccc4c13)CCC2
149 | Fc1cc(Nc2ccc(Oc3ccccc3)cc2)ccn1
231 to 233 | COc1cc(OCC(=O)N2CCOCC2)c(C=CC(=O)c2ccc(C(=O)O)cc2)cc1-c1cccs1
224 | COc1cccc(OC)c1CC(=O)N1C[C@@H]2C(=O)CCC(c3ccccc3)(c3ccccc3)[C@@H]2C1 (racemic)
198 to 202 | CC1=NN=C(C=Cc2ccc(C#N)cc2)c2cc3c(cc2C1)OCO3
110 to 113 | CCOC(=O)C1=C(COCC(C)O)NC(C)=C(C(=O)OC)C1c1cccc(Cl)c1Cl (stereo not drawn)
107 to 109 | C=CCNc1nc(NC23CC4CC(CC(C4)C2)C3)c2scc(C)c2n1
128 to 129 | OCc1cn(Cc2ccc(OCc3ccccc3)cc2)nc1OCc1ccc(OCc2ccccc2)cc1
62.5 to 63.5 | COc1ccc(C(=O)c2cccc(C(F)(F)F)c2)cc1
193 to 194 | O=C(CCl)Nc1ccc2c(c1NC(=O)c1ccccc1Cl)C(=O)c1ccccc1C2=O
130 | COc1ccc2nc(CN3CCN(c4ccc(Cl)cc4Cl)CC3)cn2c1
99 to 102 | CCOC(=O)c1ccc(Nc2ccc([N+](=O)[O-])cc2[N+](=O)[O-])cc1
91.5 | OCc1ccc(-c2ccccc2)s1

melting point [°C] | Compound
166 to 168 | COC(=O)c1cccc2c1N=C(c1ccccc1Cl)CC2=O
120 to 121 | COC(=O)c1ccccc1OCNC(=O)CCCCCNC(=O)OC(C)(C)C
265 to 267 | Cn1c(C(N)=O)nc([N+](=O)[O-])c1C#N
152 | Cc1cc(-c2cc(F)c(F)cc2-c2ccc(S(N)(=O)=O)cc2)ccc1F
183 to 185 | CCCCc1nc(=O)c2cc(C(O)c3ccco3)ccc2[nH]1 (stereo not drawn)
84 to 85.6 | COc1ccc(N(C)c2ncnc3occ(C)c23)cc1
220 to 222 | CNS(=O)(=O)c1ccc(Nc2cc(-n3ccc(C(F)(F)F)n3)c3ccccc3n2)cc1
97.8 | CC(C)(C)NC(=O)N1CCN(Cc2ccccc2)C[C@@H]1C(=O)NCCc1cncn1Cc1ccc(C#N)cc1
78 to 79 | N#CC(C#N)=C1N(CCCCN2CCCCC2)CCN1CCN1CCCCC1
60 to 64 | Cc1ccc(OC(C)(C)C=O)c(C#N)c1
165 to 166 | O=C(O)C[C@H]1CCCCN1C(=O)C=Cc1c(-c2ccccc2)nn2ccccc12
174 to 175 | CCOc1ccccc1N1C(=O)CC(N(O)c2ccccc2)C1=O (stereo not drawn)
158 to 159 | CC(=O)OC1OCC[C@@H]1NC(=O)[C@H](CC(C)C)NC(=O)OCc1ccccc1 (stereo partly drawn)
72 to 77 | CC(CCCCc1ccc(F)cc1)NCc1c(CO)ccc(O)c1CO (stereo not drawn)
136 | CCCS(=O)(=O)c1ccc2c(c1)C1(O)C(C2)SC(=NCC)N1CC (stereo not drawn)
225 to 226 | CC(C)(C)OC(=O)N1CCCN(c2nc3ccccc3[nH]2)CC1
135 to 136 | O=[N+]([O-])C=C(NCCCOc1cccc(CN2CCCCC2)c1)NCC(O)c1ccc(F)cc1 (stereo not drawn)
98 to 99 | CC(C)(C)[Si](C)(C)Oc1cc(Br)c2oc(-c3ccc(O[Si](C)(C)C(C)(C)C)c(F)c3)nc2c1
65 to 67 | Cc1ccc(S(=O)(=O)Oc2cccc(C=O)c2)cc1
183 to 184 | NC(=S)Nc1ccccc1-c1ccccc1
208 to 209 | CN(C)c1cc[nH]c(=O)c1[N+](=O)[O-]
202 to 205 | O=C(O)CC(NC(=O)c1ccccc1)c1ccccc1F (stereo not drawn)
164 | COc1cc(Nc2nccc(NS(=O)(=O)c3ccccc3)n2)cc(OC)c1OC
110 to 112 | N#CSc1ccc(N)c([N+](=O)[O-])c1

Compound | melting point [°C]
O=C(O)CNC(=O)CN1CCCC1=O | 149 to 150
O=C(Nc1ccc(N(CCCl)CCCl)cc1)Nc1c2ccccc2nc2ccccc12 | 184 to 186

Reference: a melting point compilation (Tetko et al.; mined from patent text by program, amines drawn as free bases though some values may be those of a salt)
